Results from patent publication US4892882A, “Carbamoyloxy-isoxazole derivatives, their preparation and insecticidal compositions containing them” (priority 1980, dated 1990).
Read-outs that look alike come from different tables or passages of the source.

Tests used:
[1] = test system: green peach aphids of a strain resistant to organic phosphate insecticides; assay: Activity against green peach aphids (mixed formulation); type: in vivo; settings: Myzus persicae, topical, read-out: Percentage mortality
Description: Emulsifiable concentrates containing a total of 25% by weight of active ingredient or ingredients were prepared as described in Example 22 and diluted with water to the concentrations given in the following Table 6. Each emulsion contained as active ingredient Compound No. 1, Compound No. 9 or the known insecticide isoxathion alone or contained a mixture of isoxathion and Compound No. 1 or No. 9. The diluted emulsions were sprayed, in an amount of 10 ml per leaf, onto the leaves of the Chinese mustard "Komatsuna" bearing green peach aphids of a strain known to be resistant to organic phosphate insecticides. The leaf stalks of the leaves were placed into 30 ml bottles and the mouths of the bottles were plugged with cotton wool. After maintaining the leaves at 25° C. for 72 hours, the percentage mortality was assessed and the results are shown in Table 6. The expected percentage mortality of the combinations of Compound No. 1 or No. 9 with Isoxation is shown in parentheses in the table.

[2] = test system: brown planthopper (Nilaparvata lugens); assay: Activity against the brown planthopper, dust on rice seedlings; type: in vivo; settings: topical, 10 mg per pot, resistant strain, final instar larvae, 72 hours, 25° C., read-out: Percentage mortality, Brown planthopper
Description: (§1) A dust was prepared by homogeneously mixing and pulverizing twice with a pulverizer 2 parts by weight of each in turn of the test compounds indicated in Table 4 and 98 parts by weight of clay. The dusts were then sprayed onto rice seedlings planted in plastic pots and covered with a plastic cylinder in amounts sufficient to provide 10 mg of the […] dust per pot (corresponding to 1.4 kg of dust per 10 ares). 10-15 of the final instar larvae of the green rice leafhopper (Naphotettix cincticeps) or of the brown planthopper (Nilaparvata lugens) of strains known to be resistant both to conventional organic phosphorus and carbamate insecticides were released into each pot. After maintaining the pots at 25° C. for 72 hours, the percentage mortality of the larvae was assessed. Each test was carried out twice and the results averaged.

[3] = test system: green peach aphid (Myzus persicae); assay: Control of green peach aphid, systemic activity; type: in vivo; settings: 72 hours, 25° C., read-out: Percentage mortality of green peach aphid, Systemic
Description: (§2) A wettable powder was prepared by homogeneously mixing and pulverizing three times in a hammer mill 10 parts by weight of one of the test compounds indicated in Tables 2 and 3, 4 parts by weight of sodium dodecylbenzene sulphonate, 2 parts by weight of polyvinyl alcohol and 84 parts by weight of clay. The wettable powder thus prepared was then diluted with water to the concentration indicated in Table 1, and then 0.01% w/v of Gramin (a spreader) was added.
The suspensions were then poured into 30 ml bottles. Leaves of the Chinese mustard "Komatsuna" bearing green peach aphids were then placed in the bottles and the mouths of the bottles were plugged with cotton wool. The bottles were placed in a room maintained at 25° C. for 72 hours, after which the percentage mortality of the aphids was assessed.

[4] = test system: green peach aphid (Myzus persicae); assay: Control of green peach aphid, contact activity; type: in vivo; settings: topical, 72 hours, 25° C., read-out: Percentage mortality of green peach aphid, Contact
Description: as §2
The resulting diluted solution was then sprayed onto the leaves of a cabbage bearing green peach aphids (Myzus persicae) in an amount of 10 ml per leaf. The leaf stalk of each leaf was then placed in a 30 ml bottle containing water and the mouth of the bottle was plugged with cotton wool. The bottles were then left in a room maintained at 25° C.

[5] = test system: green rice leafhopper (Naphotettix cincticeps); assay: Activity against the green rice leafhopper, dust on rice seedlings; type: in vivo; settings: Nephotettix cincticeps, topical, 10 mg per pot, resistant strain, final instar larvae, 72 hours, 25° C., read-out: Percentage mortality, Green rice leafhopper
Description: as §1

brown planthopper = assay: Activity against the brown planthopper (mixed formulation); type: in vivo; settings: Nilaparvata lugens, topical; for mortality at 50 mg: read-out: percentage mortality, insecticide alone (Compound 1 0 mg)
Description: Soil and water were placed into plastic pots having inside diameters and heights each of about 10 cm to prepare the pots for submerged cultivation,with water to a depth of about 2 cm. Rice seedlings were then planted in the pots and maintained in a greenhouse, until they had grown to a height of about 15 cm.
Dusts were prepared, each containing 0.1% w/w of Compound No. 1 or of the known organic phosphate or carbamate insecticides listed in Table 5, and these were homogeneously applied, in the amounts specified in the Table, to each pot. 10-15 of the final instar larvae of the brown planthopper were then released onto each pot. The pots were then covered and maintained at 25° C. for 72 hours, after which the percentage mortality of the larvae was assessed.
The experiments were conducted using the known organic phosphate and carbamate insecticides either alone or together with Compound No. 1 (50 mg). The percentage mortality achieved using Compound No. 1 alone in an amount of 50 mg was also assessed and found to be 0%. The expected percentage mortality of the combination of Compound No. 1 with the known organic phosphate and carbamate insecticides was calculated by the method of C. I. Bliss [Ann. Appl. Biol. 26, 585 (1939)] and is shown in parentheses in the Table.

[6] = Toxicity test in mice, mortality after 7 days (Litchfield and Wilcoxon); design: species or system mice (ddY-SLC); settings: mouse, in vivo
Description: Each of the compounds listed in Table 1 was administered in the form of a suspension, to which 0.5% w/v gum tragacanth had been added, to a group of 5 week old ddY-SLC series mice. Each test group consisted of 10 male and 10 female mice. The LD50 value was calculated, by the method of Litchfield and Wilcoxon [J. Pharmac. Exp. Ther. 96, 99 (1949)], from the mortality rate after 7 days.

[7] = 0.1% dust 50 mg, 72 hours, 25° C.

In the case of `CCOP(=S)(OCC)Oc1cc(-c2ccccc2)on1` [Isoxathion, O,O-Diethyl O-(5-phenyl-3-isoxazolyl)phosphorothioate, reference compound], the mortality at 25 ppm ([1]; Isoxathion 25 ppm, 72 hours, 25° C.) is reported as 0% and the mortality at 50 ppm ([1]; Isoxathion 50 ppm, 72 hours, 25° C.) is reported as 4.4%.
`CCCSCc1cc(OC(=O)N(C)C)no1` [compound 3, 3-Dimethylcarbamoyloxy-5-propylthiomethylisoxazole] showed a mortality at 10 mg/pot [2] of 68%, a mortality at 6.25 ppm [3] of 100% and a mortality at 50 ppm [4] of 86%. It also gave a mortality at 10 mg/pot [5] of 68%.
For `CSCc1cc(OC(=O)N(C)C)no1` [Compound No. 1, 3-Dimethylcarbamoyloxy-5-methylthiomethylisoxazole], the mortality at 50 mg/pot (brown planthopper; 72 h, read-out: percentage mortality, Compound No. 1 alone) was 0%, the mortality at 10 mg/pot [2] was 100% and the mortality at 5 ppm ([1]; 72 h) was 25.8%. For the same compound, the mortality at 10 ppm ([1]; 72 h) was 59.8%, the mortality at 1.56 ppm [3] was 100% and the mortality at 6.25 ppm [3] was 100%. It also gave a mortality at 12.5 ppm [4] of 83%, a mortality at 50 ppm [4] of 100% and an LD50 at 168 h ([6]; female mice) of 109 mg/kg. The LD50 at 168 h ([6]; male mice) was 110 mg/kg and the mortality at 10 mg/pot [5] was 65%.
For `CN(C)C(=O)Oc1cc(C[S+](C)[O-])on1` (stereo not shown) [Compound No. 5, 3-Dimethylcarbamoyloxy-5-methylsulphinylmethylisoxazole], the mortality at 6.25 ppm [3] was 100% and the mortality at 50 ppm [4] was 86%.
`CNC(=O)Oc1cccc(C)c1` [MTMC, 3-Tolyl N-methylcarbamate] gave a mortality at 50 mg (brown planthopper; [7]) of 20.8%.
`CSCc1onc(OC(=O)N(C)C)c1Br` [compound 13, 4-Bromo-3-dimethylcarbamoyloxy-5-methylthiomethylisoxazole] showed a mortality at 1.56 ppm [3] of 100%, a mortality at 6.25 ppm [3] of 100% and a mortality at 12.5 ppm [4] of 99%. For the same compound, the mortality at 50 ppm [4] was 100%.
`CC[S+]([O-])Cc1cc(OC(=O)N(C)C)no1` (stereo not shown) [compound 6, 3-Dimethylcarbamoyloxy-5-ethylsulphinylmethylisoxazole] showed a mortality at 6.25 ppm [3] of 100% and a mortality at 50 ppm [4] of 88%.
`CCS(=O)(=O)Cc1cc(OC(=O)N(C)C)no1` [compound 8, 3-Dimethylcarbamoyloxy-5-ethylsulphonylmethylisoxazole] gave a mortality at 6.25 ppm [3] of 85% and a mortality at 50 ppm [4] of 80%.
Compound `CCSCc1onc(OC(=O)N(C)C)c1Cl` [compound 10, 4-Chloro-3-dimethylcarbamoyloxy-5-ethylthiomethylisoxazole] has a mortality at 6.25 ppm [3] of 100% and a mortality at 50 ppm [4] of 97%.
For `COCc1cc(OC(=O)N(C)C)no1` [compound 15, 3-Dimethylcarbamoyloxy-5-methoxymethylisoxazole], the mortality at 6.25 ppm [3] was 100% and the mortality at 50 ppm [4] was 84%.
Work on `CC(C)SCc1cc(OC(=O)N(C)C)no1` [compound 4, 3-Dimethylcarbamoyloxy-5-isopropylthiomethylisoxazole] yielded a mortality at 6.25 ppm [3] of 96% and a mortality at 50 ppm [4] of 81%.
For `CNC(=O)Oc1cccc2ccccc12` [NAC, 1-Naphthyl N-methylcarbamate], the mortality at 50 mg (brown planthopper; 72 h) was 29.2%.
Work on `CN(C)C(=O)Oc1noc(C[S+](C)[O-])c1Cl` (stereo not shown) [compound 11, 4-Chloro-3-dimethylcarbamoyloxy-5-methylsulphinylmethylisoxazole] yielded a mortality at 6.25 ppm [3] of 100% and a mortality at 50 ppm [4] of 100%.
`CN(C)C(=O)Oc1cc(CS(C)(=O)=O)on1` [compound 7, 3-Dimethylcarbamoyloxy-5-methylsulphonylmethylisoxazole] showed a mortality at 6.25 ppm [3] of 85% and a mortality at 50 ppm [4] of 82%.
Compound `CSCc1onc(OC(=O)N(C)C)c1Cl` [Compound No. 9, 4-Chloro-3-dimethylcarbamoyloxy-5-methylthiomethylisoxazole] has a mortality at 10 mg/pot [2] of 100%, a mortality at 2.5 ppm ([1]; 72 h) of 20.1% and a mortality at 5 ppm ([1]; 72 h) of 38.4%. The mortality at 1.56 ppm [3] was 100%, the mortality at 6.25 ppm [3] was 100% and the mortality at 12.5 ppm [4] was 90%. The mortality at 50 ppm [4] was 100%.
`CNC(=O)Oc1ccccc1C(C)C` [MIPC, 2-Isopropylphenyl N-methylcarbamate] gave a mortality at 50 mg (brown planthopper; [7]) of 25%.
For `Cc1cc(OC(=O)N(C)C)no1` [3-Dimethylcarbamoyloxy-5-methylisoxazole, reference compound], the mortality at 10 mg/pot [2] was 22%, the mortality at 1.56 ppm [3] was 74% and the mortality at 6.25 ppm [3] was 89%. It also gave a mortality at 12.5 ppm [4] of 34%, a mortality at 50 ppm [4] of 84% and an LD50 at 168 h ([6]; male/female mice) of 31.2 mg/kg. The mortality at 10 mg/pot [5] was 9%.
`CSCc1onc(OC(=O)N(C)C)c1I` [compound 14, 3-Dimethylcarbamoyloxy-4-iodo-5-methylthiomethylisoxazole] showed a mortality at 6.25 ppm [3] of 100% and a mortality at 50 ppm [4] of 86%.
`CCSCc1cc(OC(=O)N(C)C)no1` [Compound No. 2, 3-Dimethylcarbamoyloxy-5-ethylthiomethylisoxazole] gave a mortality at 10 mg/pot [2] of 95%, a mortality at 6.25 ppm [3] of 100% and a mortality at 50 ppm [4] of 100%. It also gave an LD50 at 168 h ([6]; female mice) of 104 mg/kg, an LD50 at 168 h ([6]; male mice) of 125 mg/kg and a mortality at 10 mg/pot [5] of 67%.
For `CN(C)C(=O)Oc1noc(CS(C)(=O)=O)c1Cl` [Compound No. 12, 4-Chloro-3-dimethylcarbamoyloxy-5-methylsulphonylmethylisoxazole], the mortality at 6.25 ppm [3] was 90% and the mortality at 50 ppm [4] was 82%.
